In the METLIN SMRT retention time set (Domingo-Almenara et al. 2019):

Test: gradient 5% acetonitrile 3 min, to 50% in 2 min, to 85% in 15 min, held 3 min, 100 µL/min
Conditions: column: Zorbax Extend-C18 2.1 x 50 mm; eluents: water / acetonitrile, 0.1% formic acid
Procedure, shortened: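 Retention times of pure standards were taken from adduct peaks that were selected by computer and manually inspected. Over 3 months, mixtures of ~100 molecules were run by HPLC–quadrupole time-of-flight mass spectrometry in positive and negative ionization mode. The Zorbax Extend-C18 column (2.1 × 50 mm, 1.8 μm) ran at 100 μL/min in water and acetonitrile, each containing 0.1% formic acid, with 40 μL dead volume and 900 μL dwell volume.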

| SMILES | RP-LC retention time |
| --- | --- |
| CCCNC(=O)N(C1CCOCC1)C1CCN(C(=O)c2ccc3ccccc3n2)CC1 | 707 s |
| O=C(NC1CC1)c1ccc(OCC2CCN(C(=O)C3(c4ccccc4)CC3)CC2)cc1 | 859 s |
| Cc1ccc(NC(=O)C2(C)CCCCC(=O)N2)cc1 (centres undefined) | 696 s |
| O=C(Cc1ccc(Cl)cc1)NCC(=O)Nc1nc2ccccc2[nH]1 | 660 s |
| Cc1c(-c2noc(C(=O)NCCN3CCC(C)CC3)n2)oc2ccccc12 | 706 s |
| Cc1cc(NC(=O)N2CCC(c3cc(N)on3)CC2)ccc1Br | 790 s |
| Cc1cc(C)cc(-n2c(CN3CCN(C(=O)Nc4ccc5c(c4)OCCO5)CC3)nc3cccnc32)c1 | 693 s |
| Cc1cccc(-c2nc(-c3ccc4c(c3)oc(=O)n4C)no2)c1 | 1130 s |
| COc1cc(Nc2nc(-c3nnn(-c4ccc(Br)cc4F)c3C)ns2)cc(OC)c1 | 1120 s |
| COc1ccc(CC2c3cc(OC)c(OC)cc3CC[N+]2(C)C)cc1OC (centres undefined) | 693 s |
| COC(=O)c1ccc(C(=O)OC)c(NC(=O)CSc2ncnc3sc(C)c(C)c23)c1 | 1130 s |
| COc1ccc(/C=C2\Cc3ccccc3C2=O)cc1OC | 892 s |
| O=c1nc(NCc2ccccc2)c2ccccc2[nH]1 | 620 s |
| CCN1CCC2(CC1)N=C(c1ccccc1)CC(c1cc(Cl)ccc1O)N2 (centres undefined) | 621 s |
| C=CCN(CC=C)c1nc(-c2ccccc2)nc2ccccc12 | 770 s |
| Cc1nc(-c2ccccc2F)sc1C(=O)NC1CC1 | 827 s |
| CCOC(=O)c1ccccc1NC(=O)Cn1nc2c(Sc3ccccc3)nccn2c1=O | 1060 s |
| O=S(=O)(Cc1ccccc1Cl)N1CCc2nc(-c3ccc(Cl)cc3)ncc2C1 | 1220 s |
| Cc1cn2c(CCC(=O)NCCOc3ccc(F)cc3)csc2n1 | 566 s |
| c1ccc2c(c1)c(-c1noc(-c3ccncc3)n1)nn2CCN1CCCCC1 | 642 s |
| COCCCNC(=O)C1c2ccccc2C(=O)N1Cc1ccc(Cl)cc1 (centres undefined) | 770 s |
| Cc1c(S(=O)(=O)NCCC2CCN(C(=O)c3ccc(F)cc3)CC2)cnn1C(F)F | 813 s |
| COC(=O)c1c(C)[nH]c(C(=O)N2CCC(CC(=O)NCc3ccc(Cl)cc3)CC2)c1C | 774 s |
| COc1ccc(CNC(=O)C2CCCN(c3nnc4cccc(C)n34)C2)c(OC)c1 (centres undefined) | 688 s |
| O=C(CCc1c(-c2ccc(Cl)cc2)nc2ccccn12)NC1CCCC1 | 638 s |

| SMILES | RP-LC retention time |
| --- | --- |
| CS(=O)(=O)N1CCC(C(=O)N2CCCC(c3nnc(-c4cccs4)o3)C2)CC1 (centres undefined) | 642 s |
| CCS(=O)(=O)N1C[C@@H](COC)[C@H](c2ccncc2)C1 | 544 s |
| COc1ncc(C(=O)NCc2ccccc2Cl)cn1 | 737 s |
| COc1ccc(CNC(=O)c2cn(-c3cc(N(C)C)ncn3)cn2)cc1 | 743 s |
| O=S(=O)(c1cccs1)N1CCN(c2nc3c(F)cc(F)cc3s2)CC1 | 997 s |
| COc1ccccc1NC(=O)CSc1nnc2c3cc(-c4ccc(F)cc4)nn3ccn12 | 897 s |
| CCCCOC(=O)c1cccnc1 | 874 s |
| Cn1cc(CCNS(=O)(=O)c2ccccc2C(F)(F)F)c2cccnc21 | 764 s |
| COCc1nnc(C(=O)Nc2cccc(C(=O)NCCc3c[nH]c4ccc(Cl)cc34)c2)s1 | 896 s |
| CCN1C(=O)COc2ccc(-c3noc(C4CC(=O)N(c5cccc(Cl)c5)C4)n3)cc21 (centres undefined) | 1010 s |
| Cc1nc(C(=O)N2CCCn3ccnc3C2C(C)C)co1 (centres undefined) | 556 s |
| CCOc1ccc(NS(=O)(=O)c2cc(C(=O)Nc3ccc(C)cc3)n[nH]2)cc1 | 890 s |
| CCCCN1CCN(C(=O)c2cn(-c3cc(N4CCC(C)CC4)ncn3)cn2)CC1 | 690 s |
| CCc1sc(NC(=O)c2cc3c([nH]c2=O)CCCC3=O)nc1-c1ccc(Cc2ccccc2)cc1 | 1140 s |
| CNc1nc(N2CCOCC2)nc2ccccc12 | 582 s |
| CC(C)(O)[C@@H]1[C@@H]2OC(=O)[C@H]1[C@]1(O)C[C@H]3O[C@]34C(=O)O[C@H]2[C@]14C | 709 s |
| CC(C)NC[C@@H](C(=O)N1CCN(c2ncnc3c2[C@H](C)C[C@H]3O)CC1)c1ccc(Cl)cc1 | 610 s |
| O=C(Cc1cccs1)N1CCN(C(=O)c2cc3cc(Br)ccc3[nH]2)CC1 | 866 s |
| CN1CCN(C(=O)C2CC(=O)N(c3ccc4c(c3)CCN4C(=O)C3CC3)C2)CC1 (centres undefined) | 570 s |
| O=C(c1ccc(F)cc1)N1CCN(c2ccc(N3CCCC3)nn2)CC1 | 604 s |
| O=C(Cn1cccc1-c1nnc(-c2ccccc2)o1)NCc1ccc2c(c1)OCO2 | 860 s |
| Cc1nc(-c2noc(-c3ccncc3)n2)cn1CC(=O)NCc1ccc(F)cc1 | 885 s |
| CCOc1cccc(-c2noc(Cn3c(=O)n(Cc4ccccc4)c(=O)c4sccc43)n2)c1 | 1160 s |
| O=C(Cc1ccsc1)N1CCC2(CC1)N=C(c1cccc(Br)c1)NO2 | 889 s |
| CCCc1noc(-c2nc(-c3ccccc3F)no2)n1 | 1090 s |

Continued, values first:

| RP-LC retention time | SMILES |
| --- | --- |
| 1020 s | CCc1ccc(S(=O)(=O)NCc2c(-c3ccccc3)nc3sc(CC)nn23)cc1 |
| 721 s | Cc1nc(NC(=O)Cn2nc3c(cc2=O)CCCC3)sc1C |
| 845 s | CCn1c(=O)sc2cc(S(=O)(=O)N3CCC(C(=O)N4CCCCC4)CC3)ccc21 |
| 850 s | O=C(Cn1cccc(-c2nc(-c3ccc(F)cc3)no2)c1=O)Nc1ccc2c(c1)OCO2 |
| 988 s | CCc1ccc(N2CC(c3nc(-c4ccc(OC)cc4)no3)CC2=O)cc1 (centres undefined) |
| 870 s | CC(C)n1c(N2CCN(C(=O)c3ccc(Br)o3)CC2)cc(=O)n(C(C)C)c1=O |
| 831 s | O=C(Nc1cccc(Cl)c1F)C1CC(=O)N(c2ccc3c(c2)CCN3C(=O)C2CC2)C1 (centres undefined) |
| 951 s | Cc1ccc(Nc2c(-c3ccccc3O)nc3ncccn23)cc1C |
| 1470 s | CCc1ccc(-c2nc(-c3ccc(-n4cccn4)nc3)no2)cc1 |
| 937 s | O=C(Cn1nc(S(=O)(=O)c2ccc(Cl)cc2)ccc1=O)N1CCN(c2ccccc2F)CC1 |
| 969 s | COc1ccccc1C(=O)Nc1nc(-c2ccc3c(c2)N(C)C(=O)CO3)cs1 |
| 812 s | O=C1CCc2cc(S(=O)(=O)Nc3ccc(F)c(Cl)c3)cc3c2N1CCC3 |
| 951 s | CCc1nc2c(NC(=O)c3cccc(Br)c3)cccn2n1 |
| 599 s | Cc1nc2ccccn2c(=O)c1Cc1nnc(SCc2cc(=O)c3cccc(C)c3[nH]2)n1C |
| 1100 s | Cc1ccc(CNC(=O)c2nnc(-c3ccc(S(=O)(=O)N4CCC(C)CC4)cc3)o2)cc1 |
| 1120 s | O=C(Cc1ccc(Cl)cc1)NCc1nc(-c2cccc(-c3csc(C4CC4)n3)c2)no1 |
| 1070 s | CCCn1cc(C(=O)Nc2cccc(F)c2)c(S(=O)(=O)N2CCSCC2)n1 |
| 968 s | Cc1sc(NC(=O)c2ccccc2Cl)nc1-c1ccc2c(c1)N(C)C(=O)CO2 |
| 937 s | COC(=O)c1cccc(NC(=O)N(C)CCc2noc(C3CCCCC3)n2)c1 |
| 862 s | O=C(Cn1cccc1-c1nnc(C2CC2)o1)NCCc1ccc(Cl)cc1 |

| RP-LC retention time | SMILES |
| --- | --- |
| 894 s | Cc1ccc2c(c1)N(S(C)(=O)=O)CCC(C(=O)Nc1ccccc1C)O2 (centres undefined) |
| 1300 s | CCN1C(=O)COc2ccc(-c3noc(-c4ccc(C)c(C)c4)n3)cc21 |
| 695 s | FC(F)(F)c1cccc(-c2ccc(CNC3CC3)o2)c1 |
| 903 s | Cc1ccc(CNC(=O)Cn2c(C)cc(-c3nnc(C4CCC4)o3)c2C)cc1 |
| 758 s | CC(C)(C)c1ccc(CN2CCC(OC3CCN(C4CCCC4)C3=O)CC2)cc1 (centres undefined) |
| 670 s | CC(=O)c1ccc(NC(=O)C2CC(=O)N(c3ccc4c(c3)CCN4C(C)=O)C2)cc1 (centres undefined) |
| 846 s | CCOc1ccc(C(=O)N2CCC[C@@H]2C(=O)NCCc2csc(C)n2)cc1 |
| 833 s | CC(C)Sc1ccc(CC(=O)NCC2CCN(C(=O)c3ccccc3F)CC2)cc1 |
| 825 s | Cc1ccc(C(=O)NC2CCN(c3ccc(C)cc3)C2=O)cc1 (centres undefined) |
| 920 s | CCOC(=O)c1c(C)c(C(=O)CN(CC2CCCO2)C(=O)c2cccc(F)c2)c(C)n1C (centres undefined) |
| 616 s | COc1ccc(OC)c(CNC(=O)Cc2nnc(-c3cnccn3)o2)c1 |
| 672 s | COc1ccc(OC)c(CNC(=O)C2CCCN(c3nnc4cccc(C)n34)C2)c1 (centres undefined) |
| 843 s | CCc1nnc(-c2ccc3ccn(CC(=O)Nc4ccc(Cl)cn4)c3c2)o1 |
| 776 s | CN1c2ccc(F)cc2C(=O)NC12CCN(C(=O)c1ccc(F)c(F)c1)CC2 |
| 601 s | O=C(CCNc1cnc2cnccn12)NCc1ccc(F)c(Cl)c1 |
| 911 s | COc1ccc(-c2cc3c4nnc(SCC(=O)Nc5cccc(Cl)c5)n4ccn3n2)cc1 |
| 1010 s | CCCc1noc(CN2N=C(C(=O)N3CCC(C)CC3)S(=O)(=O)c3ccc(C)cc32)n1 |
| 870 s | CCOC(=O)c1cccc(Nc2nc(C(=O)OCC)nc3ccccc23)c1 |
| 1240 s | c1ccc(-c2ccc3c(c2)NC(C2Nc4cc(-c5ccccc5)ccc4O2)O3)cc1 (centres undefined) |
